Source: the OligoGym collection
Several values for one entry are separate records, joined by “and”; a condition that tells them apart may be missing. Equal values may be shown once. After the bases stand the sugars from the 5' end (letter, count) and the backbone: PS all phosphorothioate, else s phosphorothioate and o phosphodiester by linkage. Methylation of C is not given here. e = 2'-O-(2-methoxyethyl) (MOE); k = constrained ethyl (cEt); d = 2'-deoxy (DNA)

Molecular target: IRF4
Settings: ASO

Sequence	target mRNA inhibition (SK-MEL-28, 4 µM)	also measured
GTTATCTATGGAAACC (sugars k3 d10 k3, PS)	42%	
GTTCAAGTATTAAGAT (sugars k3 d10 k3, PS)	29%	
GTTCCTTTTCAGAGTC (sugars k3 d10 k3, PS)	72%	target mRNA inhibition (SK-MEL-28, 0.185 µM): 16% and 4% and 3%
GTTCGCTGAATTGTCA (sugars k3 d10 k3, PS)	37%	
GTTCTAGTCGCGCAAG (sugars k3 d10 k3, PS)	27%	
GTTGACAAATAAGGTA (sugars k3 d10 k3, PS)	60%	
GTTGGAGCAGCCATAG (sugars k3 d10 k3, PS)	31%	
GTTGGCTGGTCTTTGT (sugars k2 d9 e3 k2, PS)		target mRNA inhibition (MM.1R, 1 µM): 24%
GTTTATTTCCTACTCT (sugars k3 d10 k3, PS)	16%	
TAAAATGTCACGCCCG (sugars k3 d10 k3, PS)		target mRNA inhibition (MM.1R, 1 µM): 0%
TAAACTTGGCTGTGGG (sugars k3 d10 k3, PS)	27%	
TAAATGAGTCGGTCAC (sugars k3 d10 k3, PS)	76% and 65%	
TAACAGATAACGAGGT (sugars k3 d10 k3, PS)		target mRNA inhibition (MM.1R, 1 µM): 12%
TAACAGGCTATCAGGA (sugars k3 d10 k3, PS)	26%	
TAACCGGTAGAGTGAG (sugars k3 d10 k3, PS)		target mRNA inhibition (MM.1R, 1 µM): 27%
TAACGGTGTTTCAGAA (sugars k3 d10 k3, PS)	26%	
TAACTGGCTTCCAGGA (sugars k3 d10 k3, PS)	30%	
TAAGAGGGCAGTCAAT (sugars k3 d10 k3, PS)	17%	
TAAGCAAGTGGAGGTC (sugars k3 d10 k3, PS)	47%	
TAAGTGATAGGTATAC (sugars k3 d10 k3, PS)	60%	
TAATAATGCTTGCAAG (sugars k3 d10 k3, PS)	12%	
TAATACCTACCTGCCC (sugars k3 d10 k3, PS)	4%	
TAATAGTAAGTTCTAG (sugars k3 d10 k3, PS)	0%	
TAATCTGTATAGTTCT (sugars k3 d10 k3, PS)		target mRNA inhibition (MM.1R, 1 µM): 42%
TAATGTAGGGATACAG (sugars k3 d10 k3, PS)	78%	

Sequence	target mRNA inhibition (SK-MEL-28, 4 µM)	also measured
TAATTCTCCTATGCTG (sugars k3 d10 k3, PS)		target mRNA inhibition (MM.1R, 1 µM): 3%
TACAAAACGGACTGGA (sugars k3 d10 k3, PS)	38%	
TACACTTTGTACGGGT (sugars k3 d10 k3, PS)	28%	
TACATCACTGCAGTTC (sugars k3 d10 k3, PS)	68%	
TACCATATTGGAAACC (sugars k3 d10 k3, PS)	48%	
TACCGCATTGCTAGAT (sugars k3 d10 k3, PS)	23%	
TACGAGAGGGTCTGAT (sugars k3 d10 k3, PS)	0%	
TACTAGATTGTAGGAC (sugars k3 d10 k3, PS)	27%	
TACTGCTGTACTTTCT (sugars k3 d10 k3, PS)	43%	
TACTGCTTGAGGTTTT (sugars kdddddddddkekeke, PS)		target mRNA inhibition (MM.1R, 1 µM): 14%
TACTGCTTGAGGTTTT (sugars kkdddddddddekeke, PS)		target mRNA inhibition (MM.1R, 1 µM): 18%
TACTGCTTGAGGTTTT (sugars kkdddddddddkekek, PS)		target mRNA inhibition (MM.1R, 1 µM): 22%
TACTGTTACCGATGCT (sugars k2 d9 e3 k2, PS)		target mRNA inhibition (MM.1R, 1 µM): 29% and 8%
TACTGTTACCGATGCT (sugars kddddddddddkekek, PS)		target mRNA inhibition (MM.1R, 1 µM): 10% and 2%
TACTGTTACCGATGCT (sugars kkdddddddddkdkdk, PS)		target mRNA inhibition (MM.1R, 1 µM): 7% and 18%
TACTTGGACAGAAGGG (sugars k3 d10 k3, PS)	62%	
TAGAAAGCCCTCACCT (sugars k3 d10 k3, PS)	5%	
TAGAGAACATTACGAG (sugars k3 d10 k3, PS)	60%	
TAGATAACATGAGAGT (sugars k3 d10 k3, PS)	50%	
TAGATTCTCCCTGCAC (sugars k3 d10 k3, PS)		target mRNA inhibition (MM.1R, 1 µM): 18%
TAGCAGAGGTTCTACC (sugars k3 d10 k3, PS)	26%	
TAGCATTATCTACCTC (sugars k3 d10 k3, PS)	66%	
TAGCATTCTTACAGCA (sugars k3 d10 k3, PS)	57%	target mRNA inhibition (MM.1R, 0.0625 µM): -4% and 15%; target mRNA inhibition (MM.1R, 0.074 µM): 0%; target mRNA inhibition (MM.1R, 0.222 µM): 34%; target mRNA inhibition (MM.1R, 0.25 µM): -7% and -4%; target mRNA inhibition (MM.1R, 0.666 µM): 27%; target mRNA inhibition (MM.1R, 1 µM): 7% and 20%; target mRNA inhibition (MM.1R, 2 µM): 52%; target mRNA inhibition (MM.1R, 4 µM): 26% and 40%
TAGGAAGCACTGGCAT (sugars k3 d10 k3, PS)	28%	
TAGGATAATATACCCC (sugars k3 d10 k3, PS)	74%	

Sequence	target mRNA inhibition (SK-MEL-28, 4 µM)	also measured
TAGGTAAGATCTCCAT (sugars k3 d10 k3, PS)		target mRNA inhibition (MM.1R, 1 µM): 35% and 33%
TAGTAGACCACAGTGA (sugars k3 d10 k3, PS)	9%	
TAGTATGAGAAACGGC (sugars k3 d9 k3 e1, PS)		target mRNA inhibition (MM.1R, 1 µM): 48%
TAGTATGAGAAACGGC (sugars kkkdddddddddkeke, PS)		target mRNA inhibition (MM.1R, 0.074 µM): 8%; target mRNA inhibition (MM.1R, 0.222 µM): 29%; target mRNA inhibition (MM.1R, 0.666 µM): 50%; target mRNA inhibition (MM.1R, 1 µM): 62%; target mRNA inhibition (MM.1R, 2 µM): 71%
TAGTCGCGCAAGTCTA (sugars k3 d10 k3, PS)	-8%	
TAGTTGTCTGGCTAGC (sugars k3 d10 k3, PS)		target mRNA inhibition (MM.1R, 0.0625 µM): 4% and 7%; target mRNA inhibition (MM.1R, 0.25 µM): 16% and 24%; target mRNA inhibition (MM.1R, 1 µM): 32% and 33%; target mRNA inhibition (MM.1R, 4 µM): 68%
TATAACCGGTAGAGTG (sugars k3 d10 k3, PS)	21%	
TATAACTTCTCCTGTG (sugars k3 d10 k3, PS)		target mRNA inhibition (MM.1R, 1 µM): 7%
TATAATTGGCACGAGG (sugars k3 d10 k3, PS)	41%	
TATCAAGACAAGGAAT (sugars k3 d10 k3, PS)	7%	
TATCCATTAGAAAAGC (sugars k3 d10 k3, PS)	63%	
TATGGCTAAACCTGGC (sugars k3 d10 k3, PS)	43%	
TATTACTCTTAGGCAC (sugars k3 d10 k3, PS)	44%	
TATTTGTTTGCAAGCT (sugars k3 d10 k3, PS)		target mRNA inhibition (MM.1R, 1 µM): 30%
TCAAAAGGTAGTAGAC (sugars k3 d10 k3, PS)	29%	
TCAATGATGGCAGTCT (sugars k3 d10 k3, PS)	54%	
TCAATGGGAATCACAG (sugars k3 d10 k3, PS)	40%	
TCACAGGTAAGGGCCC (sugars k3 d10 k3, PS)	47%	
TCACTATTAAACAGCA (sugars k3 d10 k3, PS)	16%	
TCACTTGCCGCCGCCT (sugars k3 d10 k3, PS)	49%	
TCAGATACACACCCTC (sugars k3 d10 k3, PS)	37%	
TCAGTTGTAAATGAGT (sugars k3 d10 k3, PS)	72%	
TCAGTTTGTGAAGCAT (sugars kkddddddddddkeke, PS)		target mRNA inhibition (MM.1R, 1 µM): 33%
TCAGTTTGTGAAGCAT (sugars kkkdddddddddkeke, PS)		target mRNA inhibition (MM.1R, 1 µM): 53%
TCATATGGCTAAACCT (sugars k3 d10 k3, PS)	49%	
